Experimental data: ChEMBL document CHEMBL1201862, “PubChem BioAssay data set” (2004)
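Briefly, cells in 96-well plates were exposed to five compound concentrations for 48 h, and endpoints were estimated by linear interpolation. Here, GI50 denotes the concentration required for 50% inhibition of growth.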 Active and inactive are the calls of the source. No stated cut-off is given here; in the data, active = GI50 up to about 1.1 µM and inactive = higher.

How the values were obtained:
Assay in all cases: growth of human tumour cells (NCI), 48 h
[1] = system: UO-31
[2] = system: SNB-19
[3] = system: NCI-H460
[4] = system: CCRF-CEM
[5] = system: EKVX
[6] = system: CAKI-1
[7] = system: U-251
[8] = system: OVCAR-8
[9] = system: SK-OV-3
[10] = system: ACHN
[11] = system: Malme-3M
[12] = system: HOP-18
[13] = system: NCI-H23
[14] = system: HOP-62
[15] = system: 786-0
[16] = system: HCC 2998
[17] = system: DMS-114
[18] = system: IGROV-1
[19] = system: OVCAR-4
[20] = system: RXF 393
[21] = system: SW-620
[22] = system: SK-MEL-5
[23] = system: SF-268
[24] = system: HCT-15
[25] = system: SR
[26] = system: K562
[27] = system: HCT-116
[28] = system: MOLT-4
[29] = system: KM12
[30] = system: RPMI-8226
[31] = system: UACC-257
[32] = system: HT-29
[33] = system: LXFL 529
[34] = system: M19-MEL
[35] = system: SF-539
[36] = system: A498
[37] = system: COLO 205
[38] = system: DLD-1
[39] = system: SF-295
[40] = system: OVCAR-3
[41] = system: NCI-H226
[42] = system: SK-MEL-2
[43] = system: UACC-62
[44] = system: A549
[45] = system: SNB-78
[46] = system: LOX IMVI
[47] = system: HOP-92
[48] = system: NCI-H522
[49] = system: SK-MEL-28
[50] = system: OVCAR-5
[51] = system: SN12C
[52] = system: SNB-75
[53] = system: HL-60
[54] = system: M14
[55] = system: KM-20L2
[56] = system: DMS-273

SMILES: COc1ccccc1/C=N/N=C(\N)NO
- GI50 [1]: 7.18 µM (inactive)
- GI50 [2]: > 100 µM (inactive)
- GI50 [3]: 4.14 µM (inactive)
- GI50 [4]: 16.7 µM (inactive)
- GI50 [5]: 18.9 µM (inactive)
- GI50 [6]: 7.28 µM (inactive)
- GI50 [7]: 48.3 µM (inactive)
- GI50 [8]: > 10 µM (inactive)
- GI50 [9]: 71.9 µM (inactive)
- GI50 [10]: 8.22 µM (inactive)
- GI50 [11]: 30 µM (inactive)
- GI50 [12]: 48.9 µM (inactive)
- GI50 [13]: 45.2 µM (inactive)
- GI50 [14]: 6 µM (inactive)
- GI50 [15]: 23 µM (inactive)
- GI50 [16]: 4.68 µM (inactive)
- GI50 [17]: 5.78 µM (inactive)
- GI50 [18]: 96.4 µM (inactive)
- GI50 [19]: 38.4 µM (inactive)
- GI50 [20]: 28 µM (inactive)
- GI50 [21]: 21.3 µM (inactive)
- GI50 [22]: 2.77 µM (inactive)
- GI50 [23]: 20.5 µM (inactive)
- GI50 [24]: 6.32 µM
- GI50 [25]: 31.8 µM (inactive)
- GI50 [26]: 3.65 µM (inactive)
- GI50 [27]: 25.6 µM (inactive)
- GI50 [28]: 12.6 µM (inactive)
- GI50 [29]: 12.7 µM (inactive)
- GI50 [30]: 29.2 µM (inactive)
- GI50 [31]: 29.1 µM (inactive)
- GI50 [32]: 18.6 µM (inactive)
- GI50 [33]: 3.3 µM (inactive)
- GI50 [34]: 19.8 µM (inactive)
- GI50 [35]: 3.03 µM (inactive)
- GI50 [36]: 33.5 µM (inactive)
- GI50 [37]: 18.9 µM (inactive)
- GI50 [38]: 23.8 µM (inactive)
- GI50 [39]: 3.09 µM (inactive)
- GI50 [40]: 45.1 µM (inactive)
- GI50 [41]: 28.4 µM (inactive)
- GI50 [42]: 23.8 µM (inactive)
- GI50 [43]: 4.21 µM (inactive)
- GI50 [44]: 4.76 µM (inactive)
- GI50 [45]: > 100 µM (inactive)
- GI50 [46]: 4.47 µM (inactive)
- GI50 [47]: 11 µM (inactive)
- GI50 [48]: 18.7 µM (inactive)
- GI50 [49]: 21.3 µM (inactive)
- GI50 [50]: 4.58 µM (inactive)
- GI50 [51]: 30.2 µM (inactive)

SMILES: O=C1c2ccccc2N2Oc3ccccc3C12c1ccccc1 (stereo not given)
- GI50 [1]: > 100 µM (inactive)
- GI50 [2]: > 100 µM (inactive)
- GI50 [4]: > 100 µM (inactive)
- GI50 [5]: > 100 µM (inactive)
- GI50 [7]: > 100 µM (inactive)
- GI50 [8]: > 100 µM (inactive)
- GI50 [9]: > 100 µM (inactive)
- GI50 [10]: > 100 µM (inactive)
- GI50 [11]: > 100 µM (inactive)
- GI50 [12]: > 100 µM (inactive)
- GI50 [13]: > 100 µM (inactive)
- GI50 [14]: > 100 µM (inactive)
- GI50 [15]: > 100 µM (inactive)
- GI50 [16]: > 100 µM (inactive)
- GI50 [52]: > 100 µM (inactive)
- GI50 [17]: > 100 µM (inactive)
- GI50 [18]: > 100 µM (inactive)
- GI50 [19]: > 100 µM (inactive)
- GI50 [20]: > 100 µM (inactive)
- GI50 [21]: > 100 µM (inactive)
- GI50 [22]: > 100 µM (inactive)
- GI50 [23]: > 100 µM (inactive)
- GI50 [24]: > 100 µM
- GI50 [25]: > 100 µM (inactive)
- GI50 [53]: > 100 µM (inactive)
- GI50 [26]: > 100 µM (inactive)
- GI50 [27]: > 100 µM (inactive)
- GI50 [28]: > 100 µM (inactive)
- GI50 [54]: > 100 µM (inactive)
- GI50 [30]: > 100 µM (inactive)
- GI50 [31]: > 100 µM (inactive)
- GI50 [32]: > 100 µM (inactive)
- GI50 [33]: > 100 µM (inactive)
- GI50 [34]: > 100 µM (inactive)
- GI50 [35]: > 100 µM (inactive)
- GI50 [36]: > 100 µM (inactive)
- GI50 [55]: > 100 µM (inactive)
- GI50 [37]: > 100 µM (inactive)
- GI50 [38]: > 10 µM (inactive)
- GI50 [56]: > 100 µM (inactive)
- GI50 [39]: > 100 µM (inactive)
- GI50 [41]: 59.4 µM (inactive)
- GI50 [43]: > 100 µM (inactive)
- GI50 [44]: > 100 µM (inactive)
- GI50 [45]: > 100 µM (inactive)
- GI50 [47]: 92.7 µM (inactive)
- GI50 [48]: > 100 µM (inactive)
- GI50 [49]: > 100 µM (inactive)
- GI50 [51]: > 100 µM (inactive)
